According to patent EP0358766A1, “METHOD OF STERILIZING PLANT ANTHERS” (VSESOJUZNY NAUCHNO-ISSLEDOVATELSKY INST. SELSKOKHOZYAISTV. …, priority 1988, dated 1989):

Columns and labels:
[1] = test system: Sommerweizens Sorte Rodina; assay: Field test of gametocidal activity, spring wheat Rodina; assay type: in vivo, Weizen; conditions: period V, 1% aqueous emulsion, 6 kg/ha in 600 l water
Source text: (§1) Die gametozide Aktivität der erfindungsgemäßen Sterilisationsmittel war in Feldversuchen in verschiedenen bodenklimatischen Zonen mit Teilstücken von 10 m^2 Größe in dreibis viermaliger Wiederholung festgestellt. Jedes Sterilisationsmittel wurde mindenstens 5 Jahre lang geprüft.
(§2) Die Entwicklung der Perioden der Organogenese wird zytologisch überwacht. Die Behandlung von Pflanzen mit dem Sterilisationsmittel erfolgt am Anfang der fünften Periode der Organogenese nach Kupermann.
(§3) Mit dem Ährenschieben verwirklicht man die Isolierung von Hauptähren und anderen Stockwerken in Pergametbeuteln. Bei Weizen und Tritikale werden Einzelisolatoren benutzt. Bei Roggen schließt man je 1 Ähre von […] verschiedenen nebeneinander befindlichen Pflanzen unter einen gemeinsamen Isolator ein. Bei Hirse wird jede Rispe getrennt isoliert. Der Sterilitätsprozentsatz (X) für Weizen, Roggen, Tritikale und Hirse wird nach der Formel [formula] ermittelt.
(§4) Die Kornzahl in nicht isolierten Ähren von Kontrollpflanzen wird bedingt für 100 % Ansetzen bei freier Bestäubung angenommen.
(§5) Um zuverlässige Angaben zu erhalten, verwendet man 20 bis 25 Isolatoren je Wiederholung für Weizen und Tritikale, 10 bis 15 Isolatoren jeder Wiederholung für Roggen und Hirse.
Pflanzen des Sommerweizens Sorte Rodina werden in der V.Periode der Organogenese (nach Kupermann) mit einer l%igen wäßrigen Emulsion von 1,3-Dibrompropan, 1,1,1,3-Tetrabromheptan, 1,1,3-Tribromheptan bzw. 1,2-Dibromheptan behandelt. Die Emulsion enthalt 0,5 Masse% C12-C14 Kalziumalk^ylbenzol- sulfonat und 0,01 Masse% Dodezylsulfat. Der Verbrauch an Präparat beträgt 6 Kg/ha bei 600 1 Wasserdurchsatz. Als Kontrolle dienen Pflanzen, behandelt mit dem Verdünner ohne Sterilisationsmittel.
Die Prüfergebnisse sind in der Tabelle 3 angegeben. Die gleichen Ergebnisse sind bei der Behandlung des Sommerweizens Sorte Rodina in der VI. Periode der Organogenese erhalten.

[2] = Toxicity in animal test (LD50); set-up: species or system Mäuse; conditions: in vivo, mice stated only for 1,1,3-Tribrompropan, species not given for the others
Source text: Alle erfindungsgemäßen Polybromalkane, die als Sterilisationsmittel zur Verwendung kommen, waren auf die Toxizität im Tierversuch geprüft. Die Prüfergebnisse haben ergeben, daß die angegebenen Verbindungen von schwacher oder mittlerer Toxizität sind.

[3] = test system: Hirse Sorte Mironovskoye 94; assay: Field test of gametocidal activity, millet Mironovskoye 94; assay type: in vivo
Source text: as §1, §2, §3, §4, §5
Pflanzen der Hirse Sorte Mironovskoye 94 werden in der V.Periode der Organogenese mit einer 1%igen wäßrigen Emulsion von 1,1,3-Tribrompropan, 1,2,3-Tribrompropan, 1,2-Dibrompropan, 1,2-Dibrom-3-chlorpropan, 1,3-Dibrompropan, 1,1,1,3-Tetrabromheptan, 1,1,3-Tribromheptan, 1,2-Dibromheptan behandelt. Die Emulsion enthält 0,5 Masse% C12-C14--Kalziumalkylbenzolaulfonat und 0,01 Masse% Dimethylsulfoxid als Adjuvans. Der Verbrauch an Präparat beträgt 6 kg/ha bei 600 1 Wasserdurchsatz. Die Prüfergebnisse sind in der Tabelle 15 angegeben. Die gleichen Ergebnisse sind bei der Behandlung der Hirse Sorte Mironovskoye 94 in der VI. Periode der Organogenese erhalten.

[4] = test system: Sommerweizens Sorte Moskowskaya 35; assay: Field test of gametocidal activity, spring wheat Moskowskaya 35; assay type: in vivo, Weizen; conditions: for Kornzahl der Ähre bei freier Bestäubung / Kornzahl der Ähre im Isolator / Prozentsatz des Ansetzens von Samen bei freier Bestäubung: Moskowskaya 35, period V, 1% aqueous emulsion, 6 kg/ha in 600 l water; for Prozentsatz des Ansetzens von Samen bei freier Bestäubung: control = 100; for pest or weed control at 6000 g/ha: read-out: Prozentsatz der Sterilität
Source text: as §1, §2, §3, §4, §5
Pflanzen des Sommerweizens Sorte Moskowskaya 35 werden in der V. Periode der Organogenese (nach Kupermann) mit einer l%igen wäßrigen Emulsion von 1,1,3-Tribrompropan, […], 1,1,2,3-Tetrabrompropan, 1,2,3-Tribrompropan, 1,2-Dibrompropan, 1,1,3-Tribrom-3-chlorpropan, 1,2-Dibrom-3-chlorpropan, 1,3-Dibrompropan, 1,1,1,3-Tetrabromheptan bzw. 1,1,3-Tribromheptan behandelt. Die Emulsion enthält als Emulgierungsmittel 0,5 Masse% C12-C14-Kalzium- alkylbenzolsulfonat und als Adjuvans 0,01 Masse% Dimethylformamid. Der Verbrauch an Präparat beträgt 6 kg/ha bei 600 1 Wasserdurchsatz. Als Kontrolle dienen Pflanzen, behandelt mit dem Verdünner ohne Sterilisationsmittel.
Die Prüfergebnisse sind in der Tabelle 2 angegeben. Die gleichen Ergebnisse sind bei der Behandlung des Sommerweizens Sorte Moskowskaya 35 in der VI.Periode der Organogenese erhalten.

[5] = test system: diploidem Roggen Chulpan; assay: Field test of gametocidal activity, diploid rye Chulpan; assay type: in vivo; conditions: for Kornzahl der Ähre bei freier Bestäubung / Kornzahl der Ähre im Isolator / Prozentsatz des Ansetzens von Samen bei freier Bestäubung: Chulpan, period V, 1% aqueous emulsion, 10 kg/ha; for Prozentsatz des Ansetzens von Samen bei freier Bestäubung: control = 100; for pest or weed control at 10000 g/ha: read-out: Prozentsatz der Sterilität
Source text: as §1, §2, §3, §4, §5
Pflanzen von diploidem Roggen Chulpan werden in der V.Periode der Organogenese mit einer 1%igen wäßrigen Emulsion von 1,1,3-Tribrompropan, 1,1,3-Tribrom-4-chlorbutan, 1,1,2,3-Tetrabrompropan, 1,2,3-Tribrompropan, 1,2-Dibrompropan, 1,1,3-Tribrom-3-ohlorpropan, 1,2-Dibrom-3--chlorpropan, 1,3-Dibrompropan, 1,1,1,3-Tetrabromheptan, 1,1,3-Tribromheptan bzw. 1,2-Dibromheptan behandelt. Die Emulsion enthält 0,5 Masse% C12-C14-Kalziumalkylbenzolsul- fonat und 0,01 Masse% Dimethylsulfoxid. Der Verbrauch an Präparat beträgt 10 kg/ha. Die Prüfergebnisse sind in der Tabelle 11 angegeben. Die gleichen Ergebnisse sind bei der Behandlung von diploidem Roggen Chulpan in der VI. Periode der Organogenese erhalten.

[6] = test system: Sommerweizens Sorte Botanicheskaya 4; assay: Field test of gametocidal activity, spring wheat Botanicheskaya 4; assay type: in vivo, Weizen; conditions: period V, 1% aqueous emulsion, 6 kg/ha in 600 l water
Source text: as §1, §2, §3, §4, §5
Pflanzen des Sommerweizens Sorte Botanicheskaya 4 werden in der V. Periode der Organogenese (nach Kupermann) mit einer 1%igen wäßrigen Emulsion von 1,3-Dibrompropan, 1,1,1,3-Tetrabromheptan, 1,1,2-Tribromheptan bzw. 1,2--Dibromheptan behandelt. Die Emulsion enthält 0,5 Masse% C12-C14-Kalziumalkylbenzolsulfonat und 0,01 Masse% Dimethylsulfoxid als Adjuvans. Der Verbrauch an Präparat beträgt 6 kg/ha bei 600 1 Wasserdurchsatz. Als Kontrolle dienen Pflanzen, behandelt mit dem Verdünner ohne Sterilisationsmittel.
Die Prüfergebnisse sind in der Tabelle 4 angegeben. Die gleichen Ergebnisse sind bei der Behandlung des Sommerweizens Sorte Botanicheskaya 4 in der VI. Periode der Organogenese erhalten.

[7] = test system: Winterweizens Sorte Mironowskaya 808; assay: Field test of gametocidal activity (anther sterilisation), winter wheat Mironowskaya 808; assay type: in vivo, Weizen; conditions: for Kornzahl der Ähre bei freier Bestäubung / Kornzahl der Ähre im Isolator / Prozentsatz des Ansetzens von Samen bei freier Bestäubung: Mironowskaya 808, period V of organogenesis, 1% aqueous emulsion, 10 kg/ha; for Prozentsatz des Ansetzens von Samen bei freier Bestäubung: control = 100; for pest or weed control at 1 %, 10000 g/ha: read-out: Prozentsatz der Sterilität %
Source text: as §1, §2, §3, §4, §5
Pflanzen des Winterweizens Sorte Mironowskaya 808 werden in der V.Periode der Organogenese durch Zerstäubung der 2%igen wäßrigen Emulsion von 1,1,3-Tribrompropan mit Hilfe einer Rückenspritze behandelt.
Als Emulgierungsmittel setzt man 0,5 Masse% C12-C14--Kalziumalkylbenzolsulphonat zu. Als Adjuvans enthält die Emulsion 0,01 Masse% Dimethylsulfoxid. Der Verbrauch an Präparat beträgt 20 kg/ha bei 1000 Liter Wasserdurchsatz. Als Kontrolle dienen Pflanzen, behandelt mit einem Verdünner ohne Sterilisationsmittel. Die Ergebnisse sind in der Tabelle 1 angegeben.
Der ProzeB wird analog zu dem in Beispiel 1 beschriebenen durchgeführt. Als Sterilisationsmittel verwendet man eine 2%ige waßrige Emulsion von 1,1,3-Tribrom-4-chlorbutan, 1,1,2,3-Tetrabrompropan. Die Prüfergebnisse sind in der Tabelle 1 angegeben.
Der Prozeß wird analog zu dem in Beispiel 1 beschriebenen durchgeführt, nur daß man 1%ige wäßrige Emulsion von 1,2,3-Tribrompropan, 1,2-Dibrompropan, 1,1,3-Tribrom-3--chlorpropan, 1,2-Dibrom-3-chlorpropan, 1,3-Dibrompropan, 1,1,1,3-Tetrabromheptan, 1,1,3-Tribromheptan, 1,2-Dibromheptan verwendet. Die Präparatdosis beträgt 10 kg ha. Die Prüfergebnisse sind in der Tabelle 1 angegeben. Die gleichen Ergebnisse sind bei der Behandlung des Weizens Sorte Mironowskaya 808 in der VI. Periode der Organogenese erhalten.

[8] = test system: tetraploidem Roggen Belta; assay: Field test of gametocidal activity, tetraploid rye Belta; assay type: in vivo; conditions: period V, 1% aqueous emulsion, 6 kg/ha in 600 l water
Source text: as §1, §2, §3, §4, §5
Pflanzen von tetraploidem Roggen Belta werden in der V.Periode der Organogenese (nach Kupermann) mit einer 1%igen wäßrigen Emulsion von 1,1,3-Tribrompropan, 1,1,3--Tribrom-4-chlorbutan, 1,1,2,3-Tetrabrompropan, 1,2,3-Tribrompropan, 1,1,3-Tribrom-3-chlorpropan bzw. 1,2-Dibrom--3-chlorpropan behandelt.
Die Emulsion enthält 0,5 Masse% C12-C14-Kalziumalk^yl-benzolsulfonat und 0,01 Masse% Dimethylsulfoxid. Der Verbrauch an Präparat beträgt 6 kg/ha bei 600 1 Wasserdurchsatz.Die Prüfergebnisse sind in der Tabelle 7 angegeben. Die gleichen Ergebnisse sind bei der Behandlung von tetraploidem Roggen Belta in der VI. Periode der Organogenese erhalten.

[9] = test system: diploidem Roggen Kharkovskaya 55; assay: Field test of gametocidal activity, diploid rye Kharkovskaya 55; assay type: in vivo
Source text: as §1, §2, §3, §4, §5
Pflanzen von diploidem Roggen Kharkovskaya 55 werden in der V. Periode der Organogenese mit einer l%igen wäßrigen Emulsion von 1,1,3-Tribrompropan, 1,2,3-Tribrompropan, 1,2-Dibrompropan, 1,1,3-Tribrom-3-chlorpropan, 1,2--Dibrom-3-chlorpropan, 1,1,1,3-Tetrabromheptan, 1,1,3-Tribromheptan bzw. 1,2-Dibromheptan behandelt. Die Emulsion enthält 0,5 Masse% C12-C14-Kalziumalkylbenzolsulfonat und 0,01 Masse% Dimethylformamid als Adjuvans. Der Verbrauch an Präparat beträgt 6 kg/ha bei 600 1 Wasserdurchsatz. Die Prüfergebnisse sind in der Tabelle 13 angegeben. Die gleichen Ergebnisse sind bei der Behandlung von diploidem Roggen Kharkovskaya 55 in der VI. Periode der Organogenese erhalten.

[10] = Mironovskoye 94, period V, 1% aqueous emulsion, 6 kg/ha in 600 l water
[11] = read-out: Prozentsatz der Sterilität
[12] = Kharkovskaya 55, period V, 1% aqueous emulsion, 6 kg/ha in 600 l water

BrCCCBr [Beispiel 8, 1,3-Dibrompropan]
Kornzahl der Ähre bei freier Bestäubung [1]: 37,1
Kornzahl der Ähre im Isolator [1]: 0,0
Prozentsatz der Sterilität [1]: 100,0%
Prozentsatz des Ansetzens von freier Bestäubung ([1]; control = 100): 91,8%
LD50 [2]: 473 ± 25 mg/kg
Kornzahl der Rispe bei freier Bestäubung [3, 10]: 212,7
Kornzahl der Rispe im Isolator [3, 10]: 0,0
Prozentsatz des Ansetzens von Samen bei freier Bestäubung ([3]; Mironovskoye 94, period V, 1% aqueous emulsion, 6 kg/ha in 600 l water, control = 100): 86,9%
pest or weed control at 6000 g/ha [3, 11]: 100%
Kornzahl der Ähre bei freier Bestäubung [4]: 32,7
Kornzahl der Ähre im Isolator [4]: 0,0
Prozentsatz des Ansetzens von Samen bei freier Bestäubung [4]: 85,6%
pest or weed control at 6000 g/ha [4]: 100%
Kornzahl der Ähre bei freier Bestäubung [5]: 41,7
Kornzahl der Ähre im Isolator [5]: 0,1
Prozentsatz des Ansetzens von Samen bei freier Bestäubung [5]: 83,2%
pest or weed control at 10000 g/ha [5]: 99.8%
Kornzahl der Ähre bei freier Bestäubung [6]: 24,7
Kornzahl der Ähre im Isolator [6]: 0,0
Prozentsatz der Sterilität [6]: 100,0%
Kornzahl der Ähre bei freier Bestäubung [7]: 38,7
Kornzahl der Ähre im Isolator [7]: 0,0
Prozentsatz des Ansetzens von Samen bei freier Bestäubung [7]: 93,0%
pest or weed control at 1 %, 10000 g/ha [7]: 100%

CCCCCC(Br)C(Br)Br (stereo not drawn) [Beispiel 28, 1,1,2-Tribromheptan]
Kornzahl der Ähre bei freier Bestäubung [6]: 29,2
Kornzahl der Ähre im Isolator [6]: 0,0
Prozentsatz der Sterilität [6]: 100,0%
Prozentsatz des Ansetzens von Samen bei freier Bestäubung ([6]; control = 100): 94,5%

ClC(Br)CC(Br)Br (stereo not drawn) [Beispiel 6, 1,1,3-Tribrom-3--chlorpropan]
Kornzahl der Ähre bei freier Bestäubung [4]: 37,8
Kornzahl der Ähre im Isolator [4]: 1,2
Prozentsatz des Ansetzens von Samen bei freier Bestäubung [4]: 98,9%
pest or weed control at 6000 g/ha [4]: 96.3%
Kornzahl der Ähre bei freier Bestäubung [5]: 47,7
Kornzahl der Ähre im Isolator [5]: 0,6
Prozentsatz des Ansetzens von Samen bei freier Bestäubung [5]: 95,2%
pest or weed control at 10000 g/ha [5]: 98.8%
Kornzahl der Ähre bei freier Bestäubung [8]: 39,8
Kornzahl der Ähre im Isolator [8]: 0,1
Prozentsatz der Sterilität [8]: 99,9%
Prozentsatz des Ansetzens von Samen bei freier Bestäubung ([8]; control = 100): 90,0%
Kornzahl der Ähre bei freier Bestäubung [9, 12]: 41,7
Kornzahl der Ähre im Isolator [9, 12]: 0,1
Prozentsatz des Ansetzens von Samen bei freier Bestäubung ([9]; Kharkovskaya 55, period V, 1% aqueous emulsion, 6 kg/ha in 600 l water, control = 100): 92,5%
pest or weed control at 6000 g/ha [9, 11]: 99.8%
Kornzahl der Ähre bei freier Bestäubung [7]: 37,0
Kornzahl der Ähre im Isolator [7]: 1,2
Prozentsatz des Ansetzens von Samen bei freier Bestäubung [7]: 99,2%
pest or weed control at 1 %, 10000 g/ha [7]: 96.8%
